# From ChEMBL document CHEMBL5291721, “A preclinical secondary pharmacology resource illuminates target-adverse drug reaction associations of marketed drugs” (Nat Commun, 2023)
# Experiments:
# [1] = molecular target: T1, Gamma-aminobutyric acid receptor subunit alpha-1/alpha-2/beta-2/gamma-2 (Homo sapiens, UniProt P14867+P18507+P47869+P47870); type: functional, cell-based
# [2] = molecular target: T1, Gamma-aminobutyric acid receptor subunit alpha-1/alpha-2/beta-2/gamma-2; type: functional, cell-based; remark: listed apart in the source
# [3] = molecular target: Sodium-dependent serotonin transporter (Homo sapiens, UniProt P31645)
# Chain of Sodium-dependent serotonin transporter (P31645 whole entry): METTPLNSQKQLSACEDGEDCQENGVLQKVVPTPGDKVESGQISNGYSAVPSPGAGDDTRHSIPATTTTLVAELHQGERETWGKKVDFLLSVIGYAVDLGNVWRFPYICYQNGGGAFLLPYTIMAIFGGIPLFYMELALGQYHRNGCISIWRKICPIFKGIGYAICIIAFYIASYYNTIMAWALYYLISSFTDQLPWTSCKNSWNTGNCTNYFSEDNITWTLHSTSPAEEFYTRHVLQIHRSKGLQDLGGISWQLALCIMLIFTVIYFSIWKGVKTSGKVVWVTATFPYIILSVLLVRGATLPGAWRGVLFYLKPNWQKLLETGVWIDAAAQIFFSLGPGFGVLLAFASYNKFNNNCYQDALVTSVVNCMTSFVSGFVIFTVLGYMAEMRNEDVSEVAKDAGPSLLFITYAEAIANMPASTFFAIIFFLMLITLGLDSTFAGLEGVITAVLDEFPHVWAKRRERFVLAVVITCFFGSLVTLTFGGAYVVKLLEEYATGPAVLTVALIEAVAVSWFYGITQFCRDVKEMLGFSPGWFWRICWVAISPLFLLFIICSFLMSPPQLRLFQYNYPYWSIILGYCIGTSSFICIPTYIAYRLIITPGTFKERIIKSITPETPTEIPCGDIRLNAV
# [4] = molecular target: T2, Peroxisome proliferator-activated receptor gamma (Homo sapiens, UniProt P37231); type: functional
# T2 sequence (P37231 whole entry): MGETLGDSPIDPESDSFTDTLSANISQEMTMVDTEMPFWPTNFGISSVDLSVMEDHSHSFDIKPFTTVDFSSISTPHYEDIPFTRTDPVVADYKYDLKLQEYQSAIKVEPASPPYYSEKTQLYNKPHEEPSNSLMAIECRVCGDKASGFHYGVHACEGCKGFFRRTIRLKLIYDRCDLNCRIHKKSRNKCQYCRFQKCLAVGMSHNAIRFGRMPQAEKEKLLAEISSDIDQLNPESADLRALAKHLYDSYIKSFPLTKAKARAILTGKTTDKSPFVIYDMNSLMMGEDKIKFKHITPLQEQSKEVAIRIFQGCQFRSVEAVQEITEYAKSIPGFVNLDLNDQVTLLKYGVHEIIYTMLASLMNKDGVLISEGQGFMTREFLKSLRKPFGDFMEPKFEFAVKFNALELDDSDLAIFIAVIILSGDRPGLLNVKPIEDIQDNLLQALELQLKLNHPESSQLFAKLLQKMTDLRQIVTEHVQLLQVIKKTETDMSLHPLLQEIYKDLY
# Melanocortin receptor 4 = Melanocortin receptor 4 (Homo sapiens, UniProt P32245)
# Chain of Melanocortin receptor 4 (P32245 whole entry): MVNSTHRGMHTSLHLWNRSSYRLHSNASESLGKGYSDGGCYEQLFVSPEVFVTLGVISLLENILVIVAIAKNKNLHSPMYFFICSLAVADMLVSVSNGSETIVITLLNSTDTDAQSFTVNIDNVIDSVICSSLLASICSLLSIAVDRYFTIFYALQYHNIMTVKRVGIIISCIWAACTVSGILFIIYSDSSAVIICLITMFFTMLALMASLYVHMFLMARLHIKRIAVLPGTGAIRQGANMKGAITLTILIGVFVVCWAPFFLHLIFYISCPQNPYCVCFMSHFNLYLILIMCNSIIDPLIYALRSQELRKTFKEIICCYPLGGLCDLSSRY
# [5] = molecular target: Sodium channel protein type 5 subunit alpha (Homo sapiens, UniProt Q14524); type: functional, cell-based
# [6] = molecular target: T3, Alpha-1A adrenergic receptor (Homo sapiens, UniProt P35348)
# T3 sequence (P35348 whole entry): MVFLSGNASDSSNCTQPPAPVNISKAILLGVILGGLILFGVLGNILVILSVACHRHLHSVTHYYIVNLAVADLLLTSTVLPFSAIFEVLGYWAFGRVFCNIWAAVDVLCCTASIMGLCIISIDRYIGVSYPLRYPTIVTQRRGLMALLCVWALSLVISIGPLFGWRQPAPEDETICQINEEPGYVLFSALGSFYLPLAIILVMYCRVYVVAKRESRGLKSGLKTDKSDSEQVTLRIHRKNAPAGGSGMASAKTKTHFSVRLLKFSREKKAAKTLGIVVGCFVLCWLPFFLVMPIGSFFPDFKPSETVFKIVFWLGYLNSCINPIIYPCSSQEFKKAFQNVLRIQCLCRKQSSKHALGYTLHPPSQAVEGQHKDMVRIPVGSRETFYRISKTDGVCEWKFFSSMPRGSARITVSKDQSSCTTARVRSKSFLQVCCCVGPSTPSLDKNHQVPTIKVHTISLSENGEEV
# Mu-type opioid receptor = Mu-type opioid receptor (Homo sapiens, UniProt P35372); test: biochemical; type: functional
# Chain of Mu-type opioid receptor (P35372 whole entry): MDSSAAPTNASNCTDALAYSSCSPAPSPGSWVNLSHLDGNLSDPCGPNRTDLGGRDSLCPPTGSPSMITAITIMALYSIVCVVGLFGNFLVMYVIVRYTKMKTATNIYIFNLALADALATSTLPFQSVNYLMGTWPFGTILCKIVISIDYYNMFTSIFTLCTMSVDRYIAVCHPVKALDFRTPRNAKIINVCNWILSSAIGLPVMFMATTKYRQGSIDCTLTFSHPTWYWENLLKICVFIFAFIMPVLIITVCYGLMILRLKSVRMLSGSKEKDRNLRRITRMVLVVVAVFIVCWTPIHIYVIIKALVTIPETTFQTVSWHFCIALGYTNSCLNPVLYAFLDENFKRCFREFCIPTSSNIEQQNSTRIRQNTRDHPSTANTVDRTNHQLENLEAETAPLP
# Histamine H1 receptor = Histamine H1 receptor (Homo sapiens, UniProt P35367)
# Chain of Histamine H1 receptor (P35367 whole entry): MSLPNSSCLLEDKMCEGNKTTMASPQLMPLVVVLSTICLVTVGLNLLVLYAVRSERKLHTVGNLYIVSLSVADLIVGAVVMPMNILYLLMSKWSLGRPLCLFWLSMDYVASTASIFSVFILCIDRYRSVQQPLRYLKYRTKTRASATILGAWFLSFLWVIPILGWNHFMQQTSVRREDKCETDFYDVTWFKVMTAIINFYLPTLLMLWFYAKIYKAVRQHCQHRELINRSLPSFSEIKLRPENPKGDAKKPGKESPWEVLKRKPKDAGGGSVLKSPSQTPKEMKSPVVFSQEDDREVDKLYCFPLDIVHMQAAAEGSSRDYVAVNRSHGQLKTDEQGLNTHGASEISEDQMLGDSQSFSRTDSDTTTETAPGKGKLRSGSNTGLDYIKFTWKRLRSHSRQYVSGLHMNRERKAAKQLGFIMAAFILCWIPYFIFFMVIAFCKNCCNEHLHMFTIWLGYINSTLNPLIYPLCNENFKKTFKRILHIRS
# [7] = molecular target: T4, Gastric inhibitory polypeptide receptor (Homo sapiens, UniProt P48546)
# T4 sequence (P48546 whole entry): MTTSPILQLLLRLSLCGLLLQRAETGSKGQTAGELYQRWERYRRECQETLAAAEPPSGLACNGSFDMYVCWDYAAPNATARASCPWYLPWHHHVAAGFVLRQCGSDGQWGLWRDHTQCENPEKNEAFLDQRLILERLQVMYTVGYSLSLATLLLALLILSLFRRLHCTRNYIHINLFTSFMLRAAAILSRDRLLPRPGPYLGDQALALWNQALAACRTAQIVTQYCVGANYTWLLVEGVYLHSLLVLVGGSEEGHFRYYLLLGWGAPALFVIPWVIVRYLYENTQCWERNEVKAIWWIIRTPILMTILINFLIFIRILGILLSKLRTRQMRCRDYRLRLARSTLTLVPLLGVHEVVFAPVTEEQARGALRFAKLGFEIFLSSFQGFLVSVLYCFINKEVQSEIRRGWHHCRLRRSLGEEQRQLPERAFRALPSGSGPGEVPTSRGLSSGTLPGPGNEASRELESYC
# [8] = molecular target: Voltage-dependent N-type calcium channel subunit alpha-1B (Rattus norvegicus, UniProt Q02294); type: functional
# [9] = molecular target: T5, 5-hydroxytryptamine receptor 1A (Homo sapiens, UniProt P08908)
# T5 sequence (P08908 whole entry): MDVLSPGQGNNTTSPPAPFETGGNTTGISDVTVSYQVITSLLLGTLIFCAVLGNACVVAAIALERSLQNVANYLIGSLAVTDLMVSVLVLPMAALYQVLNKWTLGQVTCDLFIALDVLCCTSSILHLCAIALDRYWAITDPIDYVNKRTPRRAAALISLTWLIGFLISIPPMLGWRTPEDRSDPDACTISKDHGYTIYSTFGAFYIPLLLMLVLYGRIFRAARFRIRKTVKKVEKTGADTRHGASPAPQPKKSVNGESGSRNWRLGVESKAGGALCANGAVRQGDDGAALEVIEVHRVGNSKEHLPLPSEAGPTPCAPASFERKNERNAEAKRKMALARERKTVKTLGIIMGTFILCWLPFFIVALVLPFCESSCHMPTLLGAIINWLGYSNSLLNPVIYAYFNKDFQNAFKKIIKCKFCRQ
# [10] = molecular target: Beta-3 adrenergic receptor (Homo sapiens, UniProt P13945)
# Chain of Beta-3 adrenergic receptor (P13945 whole entry): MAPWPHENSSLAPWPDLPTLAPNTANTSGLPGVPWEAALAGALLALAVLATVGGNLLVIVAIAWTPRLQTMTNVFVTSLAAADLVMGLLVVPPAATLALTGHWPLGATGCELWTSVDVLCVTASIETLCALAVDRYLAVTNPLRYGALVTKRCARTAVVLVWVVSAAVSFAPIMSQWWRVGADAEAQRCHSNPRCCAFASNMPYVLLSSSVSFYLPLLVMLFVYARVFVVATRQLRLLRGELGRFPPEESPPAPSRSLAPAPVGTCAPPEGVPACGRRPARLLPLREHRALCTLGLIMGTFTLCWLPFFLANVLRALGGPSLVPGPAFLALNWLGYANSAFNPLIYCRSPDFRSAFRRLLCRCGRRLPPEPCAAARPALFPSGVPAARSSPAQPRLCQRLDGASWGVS
# D(1A) dopamine receptor = D(1A) dopamine receptor (Homo sapiens, UniProt P21728)
# Chain of D(1A) dopamine receptor (P21728 whole entry): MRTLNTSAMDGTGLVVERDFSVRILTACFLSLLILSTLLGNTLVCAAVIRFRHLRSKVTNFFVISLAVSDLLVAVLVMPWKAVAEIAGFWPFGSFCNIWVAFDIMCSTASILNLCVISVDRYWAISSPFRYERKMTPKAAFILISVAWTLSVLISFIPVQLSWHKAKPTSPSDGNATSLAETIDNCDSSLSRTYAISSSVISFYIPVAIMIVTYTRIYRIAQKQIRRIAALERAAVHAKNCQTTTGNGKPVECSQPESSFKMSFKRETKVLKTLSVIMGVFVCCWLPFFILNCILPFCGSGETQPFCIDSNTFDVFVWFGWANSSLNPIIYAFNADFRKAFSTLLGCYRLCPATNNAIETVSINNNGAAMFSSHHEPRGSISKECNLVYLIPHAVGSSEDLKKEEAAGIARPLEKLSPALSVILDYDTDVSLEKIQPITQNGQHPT
# Also: assay procedure not described here.
# T1 sequence (P14867 whole entry): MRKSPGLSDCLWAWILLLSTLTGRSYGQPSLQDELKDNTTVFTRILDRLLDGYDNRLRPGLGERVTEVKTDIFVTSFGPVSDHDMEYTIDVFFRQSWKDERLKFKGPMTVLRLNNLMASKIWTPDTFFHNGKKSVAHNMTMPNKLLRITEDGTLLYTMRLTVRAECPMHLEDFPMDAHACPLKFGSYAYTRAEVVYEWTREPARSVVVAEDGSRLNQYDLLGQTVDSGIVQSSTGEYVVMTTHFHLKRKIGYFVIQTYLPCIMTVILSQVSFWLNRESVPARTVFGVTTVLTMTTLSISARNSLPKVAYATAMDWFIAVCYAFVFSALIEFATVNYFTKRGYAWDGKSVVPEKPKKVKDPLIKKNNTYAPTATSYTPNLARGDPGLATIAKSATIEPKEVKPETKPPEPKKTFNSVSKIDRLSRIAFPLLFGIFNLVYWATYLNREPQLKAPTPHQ
# T1 sequence (P47870 whole entry): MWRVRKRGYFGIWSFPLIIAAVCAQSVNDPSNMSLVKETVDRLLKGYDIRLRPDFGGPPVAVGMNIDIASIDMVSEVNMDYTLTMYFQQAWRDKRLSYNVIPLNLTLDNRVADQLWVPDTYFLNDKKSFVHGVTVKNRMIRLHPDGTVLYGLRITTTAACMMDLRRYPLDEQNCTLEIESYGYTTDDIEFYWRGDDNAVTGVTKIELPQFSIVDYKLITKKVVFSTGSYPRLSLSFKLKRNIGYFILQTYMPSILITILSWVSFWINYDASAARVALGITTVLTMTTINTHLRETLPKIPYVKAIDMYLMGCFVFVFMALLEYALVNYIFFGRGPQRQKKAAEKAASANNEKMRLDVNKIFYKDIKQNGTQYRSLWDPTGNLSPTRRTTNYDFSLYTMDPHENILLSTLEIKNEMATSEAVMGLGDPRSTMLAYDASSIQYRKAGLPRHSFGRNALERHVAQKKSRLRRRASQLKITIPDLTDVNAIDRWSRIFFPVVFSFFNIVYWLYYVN
# T1 sequence (P18507 whole entry): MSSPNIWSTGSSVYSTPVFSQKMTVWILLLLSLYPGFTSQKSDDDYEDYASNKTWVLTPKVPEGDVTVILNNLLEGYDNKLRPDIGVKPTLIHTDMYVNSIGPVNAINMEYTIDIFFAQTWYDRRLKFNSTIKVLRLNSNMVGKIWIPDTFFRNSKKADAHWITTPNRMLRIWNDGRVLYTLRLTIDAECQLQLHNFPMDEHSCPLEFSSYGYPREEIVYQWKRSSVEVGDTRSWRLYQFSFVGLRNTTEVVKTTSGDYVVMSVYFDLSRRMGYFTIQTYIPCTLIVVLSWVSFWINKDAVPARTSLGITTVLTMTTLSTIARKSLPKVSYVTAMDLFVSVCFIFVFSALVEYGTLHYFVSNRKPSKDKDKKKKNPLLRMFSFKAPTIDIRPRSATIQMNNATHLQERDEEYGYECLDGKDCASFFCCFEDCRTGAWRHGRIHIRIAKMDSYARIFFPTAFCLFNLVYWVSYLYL
# T1 sequence (P47869 whole entry): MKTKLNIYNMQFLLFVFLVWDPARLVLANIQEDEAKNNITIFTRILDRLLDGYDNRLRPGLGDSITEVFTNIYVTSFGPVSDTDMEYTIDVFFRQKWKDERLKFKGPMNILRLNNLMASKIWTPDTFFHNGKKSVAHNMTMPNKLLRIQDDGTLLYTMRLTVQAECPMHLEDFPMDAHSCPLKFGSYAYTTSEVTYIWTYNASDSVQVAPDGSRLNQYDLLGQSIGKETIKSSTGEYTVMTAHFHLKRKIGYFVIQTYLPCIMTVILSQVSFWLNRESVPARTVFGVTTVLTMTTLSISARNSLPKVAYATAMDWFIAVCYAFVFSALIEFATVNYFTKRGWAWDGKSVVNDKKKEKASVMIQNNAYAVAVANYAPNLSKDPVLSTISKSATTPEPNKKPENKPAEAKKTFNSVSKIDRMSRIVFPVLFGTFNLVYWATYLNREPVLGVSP
Structure (SMILES),AC50 [1] [µM],AC50 [2] [µM],AC50 [3] [µM],AC50 [4] [µM],AC50 (Melanocortin receptor 4) [µM],AC50 [5] [µM],AC50 [6] [µM],AC50 (Mu-type opioid receptor) [µM],AC50 (Histamine H1 receptor) [µM],AC50 [7] [µM],AC50 [8] [µM],AC50 [9] [µM],AC50 [10] [µM],AC50 (D(1A) dopamine receptor) [µM]
CCCN(CCc1cccs1)[C@H]1CCc2c(O)cccc2C1 [ROTIGOTINE],> 30,> 30,7.8,> 30,,,,,,,,,,
NC(=O)c1ncn([C@@H]2O[C@H](CO)[C@@H](O)[C@H]2O)n1 [RIBAVIRIN],,,,,> 10,> 50,> 10,,,,,,,
CC(C)N(CCCCOCC(=O)NS(C)(=O)=O)c1cnc(-c2ccccc2)c(-c2ccccc2)n1 [SELEXIPAG],,,> 30,,,45,> 10,> 30,> 30,,,,,
CC(C)C[C@H](CN)CC(=O)O [PREGABALIN],> 30,> 30,> 30,> 30,> 30,,,> 30,> 30,> 30,> 10,> 10,> 30,
CC1(C)O[C@@H]2[C@@H](CO[C@@]3(COS(N)(=O)=O)OC(C)(C)O[C@@H]23)O1 [TOPIRAMATE],,,> 10,,> 30,,> 10,,> 10,> 30,> 10,> 10,> 30,> 10
NC(=O)NS(=O)(=O)c1ccc(N)cc1 [SULFACARBAMIDE],,,,,,> 50,,,,,,,,
CN(C)c1cc(CNCC(C)(C)C)c(O)c2c1C[C@H]1C[C@H]3[C@H](N(C)C)C(O)=C(C(N)=O)C(=O)[C@@]3(O)C(O)=C1C2=O [OMADACYCLINE],> 30,> 30,11,> 30,,,,> 30,> 30,,,,,
Cc1ccc([C@@H]2O[C@H](CO)[C@@H](O)[C@H](O)[C@H]2O)cc1Cc1ccc(-c2ccc(F)cc2)s1 [CANAGLIFLOZIN ANHYDROUS],,,,,,> 50,,,,,,,,
CC(=O)S[C@@H]1CC2=CC(=O)CC[C@]2(C)[C@H]2CC[C@@]3(C)[C@@H](CC[C@@]34CCC(=O)O4)[C@H]12 [SPIRONOLACTONE],> 30,> 30,,> 30,> 30,,10.4,,,> 30,> 10,> 10,> 30,> 10
COC(=O)[C@H](c1ccccc1Cl)N1CCc2sccc2C1 [CLOPIDOGREL],> 30,> 30,,> 30,> 30,,> 10,> 30,,> 30,> 10,> 10,> 30,> 10
C=C(C)[C@@H]1CCC(C)=C[C@H]1c1c(O)cc(CCCCC)cc1O [CANNABIDIOL],,,> 30,,,> 10,,,> 30,,,,,
CNCC[C@H](Oc1cccc2ccccc12)c1cccs1 [DULOXETINE],,,,,17.8,5.3,,,8.8,,,,,
CN1CCN(CCCN2c3ccccc3Sc3ccc(S(=O)(=O)N(C)C)cc32)CC1 [THIOPROPERAZINE],> 30,> 30,,,,,,> 30,0.33,,,,,
CC(=N)N1CC[C@H](SC2=C(C(=O)O)N3C(=O)[C@H]([C@@H](C)O)[C@H]3C2)C1,> 800,> 2400,37,> 300,,,,,> 300,,,,,
CCC(=O)O[C@@H](O[P@](=O)(CCCCc1ccccc1)CC(=O)N1C[C@H](C2CCCCC2)C[C@H]1C(=O)O)C(C)C [FOSINOPRIL],> 30,> 30,,,,,,> 30,> 30,,,,,
CCOc1cc(CC(=O)N[C@@H](CC(C)C)c2ccccc2N2CCCCC2)ccc1C(=O)O [REPAGLINIDE],> 30,> 30,> 30,> 30,,,,,> 30,,,,,
CCCN(CCC)CCc1cccc2c1CC(=O)N2 [ROPINIROLE],> 30,> 30,> 30,> 30,> 30,,> 10,> 30,14,> 30,> 10,8.15,> 30,> 10
O=C1NC(=O)C(c2ccccc2)(c2ccccc2)N1 [PHENYTOIN],,,,> 30,> 30,> 50,> 10,,,> 30,> 10,> 10,> 30,
CC1(C)S[C@@H]2[C@H](NC(=O)[C@H](N)c3ccc(O)cc3)C(=O)N2[C@H]1C(=O)O [AMOXICILLIN],,,,,> 30,> 30,> 10,> 30,,> 30,> 10,> 10,> 30,> 10
CO/N=C(\C(=O)N[C@@H]1C(=O)N2C(C(=O)O)=C(COC(N)=O)CS[C@H]12)c1ccco1 [CEFUROXIME],> 30,> 30,> 30,> 30,,,,> 30,> 30,,,,,
CNC[C@H](O)c1cccc(O)c1 [PHENYLEPHRINE],,,> 10,,> 30,> 30,,> 30,> 10,> 30,> 10,> 10,,> 10
O=C(Nc1c(Cl)cncc1Cl)c1ccc(OC(F)F)c(OCC2CC2)c1 [ROFLUMILAST],,,> 30,,,> 50,,> 30,> 30,,,,,
C#Cc1cccc(Nc2ncnc3cc(OCCOC)c(OCCOC)cc23)c1 [ERLOTINIB],> 30,> 30,,> 30,,,,,> 30,,,,,
C[C@H]1Oc2cc(cnc2N)-c2c(nn(C)c2C#N)CN(C)C(=O)c2ccc(F)cc21 [LORLATINIB],> 30,> 30,> 30,> 30,,> 30,,,> 30,,,,,
CCCCCCCCNC(C)C(O)c1ccc(SC(C)C)cc1 (stereo not given) [SULOCTIDIL],,,,,,7.7,,,,,,,,
